# According to patent publication US20130131161A1, “METHODS AND COMPOSITIONS FOR CARDIOVASCULAR DISEASES AND CONDITIONS” (priority 2009, published 2013):
# System: Human umbilical vein endothelial cells (HUVECs)
# Experiment: Comparison of LA-419 and ISDN: NO and ONOO− release from HUVECs measured with tandem electrochemical nanosensors (Example 1)
# Type: cell-based
# Conditions: for NO release (mean ± S.D.) / ONOO− release (mean ± S.D.): 500 nM, 12 hours, then CaI (1.0 μM)
# Description: Human umbilical vein endothelial cells (HUVECs) were isolated into primary cultures and purchased as proliferating cells from Clonetics (San Diego, Calif.). All cell culture donors were healthy, with no pregnancy or prenatal complications. The cultured cells were incubated in 95% air/5% CO2 at 37° C. and passage by an enzymatic (trypsin) procedure. The confluent cells (4 to 5×10^5 cells per 35-mm dish) were placed with minimum essential medium containing 3 mM L-arginine and 0.1 mM BH4 [(6R)-5,6,7,8-tetrahydrobiopterin]. Before the experiments, the cells (from second or third passage) were rinsed twice with Tyrode-HEPES buffer with 1.8 mM CaCl2. ISDN was obtained from Sigma-Aldrich.
# Concurrent measurements of NO and ONOO^− were carried out with tandem electrochemical nanosensors combined into one working unit with a total diameter of 200-500 nm (FIG. 1). Their design was based on previously developed and well-characterized chemically modified carbon-fiber technology (Malinski and Taha, 1992; Lvovich and Scheeline, 1997). Each of the nanosensors was made by depositing a sensing material on the tip of a carbon fiber (length 4-5 μm, diameter 0.2-0.5 μm). The fibers were sealed with nonconductive epoxy and electrically connected to copper wires with conductive silver epoxy. A conductive film of polymeric nickel (II) tetrakis(3-methoxy-4-hydroxyphenyl)porphyrin for the NO-sensor and polymeric film of Mn (III) [2.2]paracyclophanylporphyrin was used for the ONOO^−-sensor.
# A module of NO/ONOO^− nanosensors (diameter 1-2 μm) with a platinum wire (0.1 mm) counter electrode and saturated calomel reference electrode (SCE) were applied. Differential pulse voltammetry (DPV) and amperometry were performed with a computer-based Gamry VFP600 multichannel potentiostat. DPV was used to measure the basal NO and ONOO^− concentrations, and amperometry was used to measure changes in NO and ONOO^− concentrations from its basal level with time. The DPV current at the peak potential characteristic for NO oxidation (0.65 V) and ONOO^− reduction (−0.45 V) was directly proportional to the local concentrations of these compounds in the immediate vicinity of the sensor. Linear calibration curves (current vs. concentration) were constructed for each sensor from 10 nM to 3 μM before and after measurements with aliquots of NO and ONOO^− standard solutions, respectively. The detection limit of the sensors was 1.0 nM.
# The quantification of each analyte (concentration in nM) was performed using a maximum current from amperograms and standard calibration curves. A reproducibility of measurements with nanosensors is relatively high (between 5-12%). […] The sensors were slowly raised 5±2 μm from the surface of a single endothelial cell. The eNOS agonist, calcium ionophore A23187 (CaI) as well as the different drugs were then added to the surrounding media at the cell surface with a nanoinjector that was also positioned by a computer controlled-micromanipulator.
# The HUVEC preparation is stable over the course of these experiments with the cells remaining viable in culture for >24 hours. Under non-stimulating conditions, basal levels of NO release are very low (<30 nM). Measurement of NO release as a function of treatment was conducted in individual endothelial cells. Multiple measurements of NO release can be conducted on single cells following a brief refractory period. For robust statistical analysis, separate cells were used for each concentration and type of drug used in these analyses.
# [1] = HUVECs from Non-Hispanic Whites
compound,measurement,setting,value
"CC(=O)SC1COC2C(O[N+](=O)[O-])COC12 (stereo not drawn) [LA-419, S-(6-Nitro-oxi-hexahydro-furo[3,2-b]furan-3-1-il)thioacetate]",NO release (mean ± S.D.),HUVECs from African Americans,253 ± 15 nM
same,ONOO− release (mean ± S.D.),HUVECs from African Americans,532 ± 25 nM
same,NO release (mean ± S.D.),[1],409 ± 30 nM
same,ONOO− release (mean ± S.D.),[1],307 ± 11 nM
same,effect on NO release,"HUVECs from both non-Hispanic whites and African Americans, identical conditions",small increase
same,NO/ONOO− ratio versus control samples,"HUVECs, 12 h treatment",not significantly different from control samples
